Test results published in patent US8784782B2 (Senomyx, Inc., priority 2005, dated 2014).
Read-outs that look alike come from different tables or passages of the source.

What was measured:
[1] = target: T1, hT1R1/hT1R3 umami receptor expressed in an HEK293 cell line (Homo sapiens, UniProt Q7RTX0+Q7RTX1); experiment: Umami taste enhancement activity assay (EC50 ratio vs. MSG, FLIPR); format: cell-based; details: for Ec50 ratio (vs. MSG): Table A
T1 construct: expressed in transfected cells; host or cells: HEK293 cell line derivative, hT1R1/hT1R3-HEK293-Gα15, clone I-17, mifepristone-induced
T1 sequence (Q7RTX1 21-841): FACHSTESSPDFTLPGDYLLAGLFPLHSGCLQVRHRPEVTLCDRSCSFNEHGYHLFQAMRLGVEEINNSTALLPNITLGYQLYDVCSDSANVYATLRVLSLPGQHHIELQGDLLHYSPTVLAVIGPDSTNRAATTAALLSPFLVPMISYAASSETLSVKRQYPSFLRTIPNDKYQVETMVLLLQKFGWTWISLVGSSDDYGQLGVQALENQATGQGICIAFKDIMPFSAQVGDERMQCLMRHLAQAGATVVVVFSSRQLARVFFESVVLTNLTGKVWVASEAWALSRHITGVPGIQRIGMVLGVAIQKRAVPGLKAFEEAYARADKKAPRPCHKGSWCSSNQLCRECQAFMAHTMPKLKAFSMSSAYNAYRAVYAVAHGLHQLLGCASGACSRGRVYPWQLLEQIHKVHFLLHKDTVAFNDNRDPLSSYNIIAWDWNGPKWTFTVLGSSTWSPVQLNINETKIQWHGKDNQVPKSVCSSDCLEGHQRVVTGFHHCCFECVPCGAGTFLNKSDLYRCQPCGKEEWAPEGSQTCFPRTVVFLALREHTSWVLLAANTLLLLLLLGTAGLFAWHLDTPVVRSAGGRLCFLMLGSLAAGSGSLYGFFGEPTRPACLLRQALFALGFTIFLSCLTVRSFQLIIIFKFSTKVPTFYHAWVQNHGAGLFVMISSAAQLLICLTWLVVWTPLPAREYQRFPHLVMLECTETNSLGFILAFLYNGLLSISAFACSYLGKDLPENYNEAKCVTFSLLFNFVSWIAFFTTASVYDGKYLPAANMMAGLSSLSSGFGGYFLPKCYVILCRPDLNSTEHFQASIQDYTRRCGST
T1 sequence (Q7RTX0 21-852): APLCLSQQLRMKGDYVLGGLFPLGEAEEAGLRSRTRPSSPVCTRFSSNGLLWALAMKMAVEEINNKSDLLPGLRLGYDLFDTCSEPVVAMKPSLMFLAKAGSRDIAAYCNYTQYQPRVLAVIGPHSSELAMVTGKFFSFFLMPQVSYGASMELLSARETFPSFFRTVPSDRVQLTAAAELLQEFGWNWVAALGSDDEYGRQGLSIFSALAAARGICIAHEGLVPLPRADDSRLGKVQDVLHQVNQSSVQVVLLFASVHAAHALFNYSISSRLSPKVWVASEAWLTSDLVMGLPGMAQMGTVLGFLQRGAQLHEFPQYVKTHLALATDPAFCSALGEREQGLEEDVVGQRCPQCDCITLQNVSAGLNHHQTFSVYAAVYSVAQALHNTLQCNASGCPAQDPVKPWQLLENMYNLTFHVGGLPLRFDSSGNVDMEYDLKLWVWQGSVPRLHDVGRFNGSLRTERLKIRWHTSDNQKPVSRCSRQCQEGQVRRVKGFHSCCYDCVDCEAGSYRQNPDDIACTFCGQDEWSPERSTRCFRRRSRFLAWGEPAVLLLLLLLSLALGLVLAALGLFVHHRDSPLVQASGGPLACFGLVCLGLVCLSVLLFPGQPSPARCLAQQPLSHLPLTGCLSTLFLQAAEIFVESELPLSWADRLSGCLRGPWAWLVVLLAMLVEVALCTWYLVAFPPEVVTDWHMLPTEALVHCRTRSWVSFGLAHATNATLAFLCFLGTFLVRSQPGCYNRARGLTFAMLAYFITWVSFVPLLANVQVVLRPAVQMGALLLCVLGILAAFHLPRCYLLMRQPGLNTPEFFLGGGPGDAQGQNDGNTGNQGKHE
Description: A series of measurements of the dose response is run in solutions comprising MSG alone, then a second dose response is run with MSG in combination with predetermined amounts of a candidate compound of Formula (I) at the same time.
Typical compound concentrations tested were 30 μM, 10 μM, 3 μM, 1 μM, 0.3 μM, 0.1 μM and 0.03 μM. The relative efficacy of compounds of Formula (I) at enhancing the receptor was determined by calculating the magnitude of a shift in the EC50 for monosodium glutamate. Enhancement was defined as a ratio (EC50R) corresponding to the EC50 of monosodium glutamate, determined in the absence of the test compound, divided by the EC50 of monosodium glutamate, determined in the presence of the test compound.
Stated alternatively, “EC50 ratio” as compared to MSG is calculated based on the following definitions: EC50 Ratio vs. MSG=EC50 (MSG)/EC50 (MSG+[Compound]) • wherein “[compound]” refers to the concentration of the compound of Formula (I) used to elicit (or enhance or potentiate) the MSG dose response.

[2] = target: T1, hT1R1/hT1R3 umami receptor expressed in an HEK293 cell line; experiment: In vitro hT1R1/hT1R3 umami taste receptor activation assay (FLIPR, dose response); format: cell-based
Description: Activity was determined using an automated fluorometric imaging assay on a FLIPR instrument ([…], Molecular Devices, Sunnyvale, Calif.) (designated FLIPR assay). […] After replacement with 25 μl D-PBS, stimulation was performed in the FLIPR instrument and at room temperature by the addition of 25 μl D-PBS supplemented with different stimuli at concentrations corresponding to twice the desired final level. Receptor activity was quantified by determining the maximal fluorescence increases (using a 480 nm excitation and 535 nm emission) after normalization to basal fluorescence intensity measured before stimulation.
Activities were normalized to the response obtained with 60 mM monosodium glutamate, a concentration that elicits maximum receptor response.

un-induced I-17 cells = experiment: FLIPR assay on un-induced I-17 cells (receptor dependency control); format: cell-based; details: un-induced I-17 cells (no mifepristone)
Description: In order to determine the dependency of hT1R1/hT1R3 for the cell response to different stimuli, selected compounds were subjected to a similar analysis on I-17 cells that had not been induced for receptor expression with mifepristone (designated as un-induced I-17 cells). […] Compounds were presented to un-induced umami cells at […]—or three times the maximum stimulation used in the dose-response analysis.

[3] = Table A, triazoles, read-out: Umami EC50
[4] = read-out: EC50 for activation of a hT1R1/hT1R3 umami receptor expressed in an HEK293 cell line

Structure (SMILES)	Ec50 ratio (vs. MSG) ([1]; @ 0.3 μM compound)	EC50 [2, 3] [µM]	EC50 [2, 4] [µM]	other results
COc1ccc(-c2n[nH]c(SCc3ccccn3)n2)c(C)c1 [Example A3, 2-((5-(4-methoxy-2-methylphenyl)-2H-1,2,4-triazol-3-ylthio)methyl)pyridine]	2.01	0.24		
COc1ccc(-c2n[nH]c(SCc3ccccn3)n2)c(OC)c1 [Example A4, 2-((5-(2,4-dimethoxyphenyl)-2H-1,2,4-triazol-3-ylthio)methyl)pyridine]		0.37		Ec50 ratio (vs. MSG) ([1]; @ 0.1 μM compound): 6.22
Cc1ccc(-c2nc(SCc3ccccn3)n[nH]2)c(C)c1 [Example 3, 2-((5-(2,4-dimethylphenyl)-1H-1,2,4-triazol-3-ylthio)methyl)pyridine]			0.09	EC50 ratio (enhanced the effectiveness of monosodium glutamate) ([1]; compound present at 0.01 μM): 4.3; melting point: 112 to 114 °C
COc1cc(C)ccc1-c1nc(SCc2ccccn2)n[nH]1 [Example 1, 2-((5-(2-methoxy-4-methylphenyl)-1H-1,2,4-triazol-3-ylthio)methyl)pyridine]			0.08	EC50 ratio (enhanced the effectiveness of monosodium glutamate) ([1]; compound present at 0.03 μM): 5.9
COc1cccc(-c2n[nH]c(SCc3ccccn3)n2)c1OC [Example A2, 2-((5-(2,3-dimethoxyphenyl)-2H-1,2,4-triazol-3-ylthio)methyl)pyridine]		0.18		Ec50 ratio (vs. MSG) ([1]; @ 0.01 μM compound): 1.9
Cc1cc(-c2nc(SCc3ccccn3)n[nH]2)oc1C [Example 5, 2-((5-(4,5-dimethylfuran-2-yl)-1H-1,2,4-triazol-3-ylthio)methyl)pyridine]			0.58	EC50 ratio (enhanced the effectiveness of monosodium glutamate) ([1]; compound present at 0.1 μM): 4.4
CCc1ccc(-c2nc(SCc3ccccn3)n[nH]2)cc1 [Example 4, 2-((5-(4-Ethylphenyl)-1H-1,2,4-triazol-3-ylthio)methyl)pyridine]			0.14	EC50 ratio (enhanced the effectiveness of monosodium glutamate) ([1]; compound present at 0.03 μM): 4.4
Cc1cc(-c2nc(SCCc3ccccn3)n[nH]2)oc1C [Example 8, 2-(2-(5-(4,5-dimethylfuran-2-yl)-1H-1,2,4-triazol-3-ylthio)ethyl)pyridine]			1.87	EC50 ratio (enhanced the effectiveness of monosodium glutamate) ([1]; compound present at 0.1 μM): 2.66
c1ccc(CSc2n[nH]c(-c3cc4ccccc4o3)n2)nc1 [Example 6]			2.58	EC50 ratio (enhanced the effectiveness of monosodium glutamate) ([1]; compound present at 0.1 μM): 2.88
COc1ccc(-c2n[nH]c(SCc3ccccn3)n2)cc1OC [Example A18, 2-((5-(3,4-dimethoxyphenyl)-2H-1,2,4-triazol-3-ylthio)methyl)pyridine]	2.13	4.08		
COc1cc(OC)cc(-c2n[nH]c(SCc3ccccn3)n2)c1 [Example A16, 2-((5-(3,5-dimethoxyphenyl)-2H-1,2,4-triazol-3-ylthio)methyl)pyridine]	3.16	2.58		
c1ccc(-c2n[nH]c(SCc3ccccn3)n2)cc1 [Example A17, 2-((5-phenyl-2H-1,2,4-triazol-3-ylthio)methyl)pyridine]	3.02	2.89		
Cc1ccc(-c2n[nH]c(SCc3ccccn3)n2)cc1 [Example A1, 2-((5-p-tolyl-2H-1,2,4-triazol-3-ylthio)methyl)pyridine]		0.17		Ec50 ratio (vs. MSG) ([1]; @ 0.01 μM compound): 2.19
N[C@@H](CCC(=O)O)C(=O)[O-].[Na+] [monosodium glutamate]				functional response in the FLIPR assay (un-induced I-17 cells): do not show any functional response
c1ccc(CSc2nc(-c3ccc4c(c3)OCO4)n[nH]2)nc1 [Example A10, 2-((5-(benzo[d][1,3]dioxol-5-yl)-2H-1,2,4-triazol-3-ylthio)methyl)pyridine]	6.01	1.18		
Clc1cccc(-c2n[nH]c(SCc3ccccn3)n2)c1 [Example A15, 2-((5-(3-chlorophenyl)-2H-1,2,4-triazol-3-ylthio)methyl)pyridine]		2.54		Ec50 ratio (vs. MSG) ([1]; @ 0.1 μM compound): 2
COc1ccccc1-c1n[nH]c(SCc2ccccn2)n1 [Example A13, 2-((5-(2-methoxyphenyl)-2H-1,2,4-triazol-3-ylthio)methyl)pyridine]	7.36	2.12		
CCOc1ccccc1-c1n[nH]c(SCc2ccccn2)n1 [Example A19, 2-((5-(2-ethoxyphenyl)-2H-1,2,4-triazol-3-ylthio)methyl)pyridine]	2.01	6.49		
COc1ccc(Cc2nc(SCc3ccccn3)n[nH]2)c(OC)c1 [Example 9, 2-((5-(2,4-dimethoxybenzyl)-1H-1,2,4-triazol-3-ylthio)methyl)pyridine]			1.2	EC50 ratio (enhanced the effectiveness of monosodium glutamate) ([1]; compound present at 0.1 μM): 2.66
Cc1ccccc1-c1n[nH]c(SCc2ccccn2)n1 [Example A12, 2-((5-o-tolyl-2H-1,2,4-triazol-3-ylthio)methyl)pyridine]		1.86		Ec50 ratio (vs. MSG) ([1]; @ 0.1 μM compound): 1.97
